Experimental data published in publication PMC10418759, “New Highly Selective BACE1 Inhibitors and Their Effects on Dendritic Spine Density In Vivo” (International Journal of Molecular Sciences, 2023).

Legend:
[1] = tested on: dendritic spines of layer V pyramidal neurons, somatosensory cortex; details: mouse, in vivo; cited from earlier work
[2] = target: T1, recombinant human BACE2 ectodomain (Homo sapiens, UniProt Q9Y5Z0); assay: BACE2 biochemical enzymatic assay (ELISA-based, APP-derived Swedish-mutation peptide substrate); details: 1 h at 37 °C
T1 sequence (Q9Y5Z0 63-473 limits assumed): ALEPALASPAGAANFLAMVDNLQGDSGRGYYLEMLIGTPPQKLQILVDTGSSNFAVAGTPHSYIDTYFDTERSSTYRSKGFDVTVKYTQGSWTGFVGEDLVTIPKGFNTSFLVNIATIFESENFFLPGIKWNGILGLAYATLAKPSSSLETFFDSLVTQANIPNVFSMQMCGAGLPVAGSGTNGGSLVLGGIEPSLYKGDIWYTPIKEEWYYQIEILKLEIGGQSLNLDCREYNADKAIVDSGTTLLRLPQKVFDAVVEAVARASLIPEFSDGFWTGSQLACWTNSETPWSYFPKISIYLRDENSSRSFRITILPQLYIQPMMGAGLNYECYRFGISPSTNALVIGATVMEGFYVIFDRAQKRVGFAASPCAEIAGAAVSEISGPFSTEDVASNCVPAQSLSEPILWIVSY
Protocol: (§1) BACE1 enzymatic activity was determined in a homogeneous time-resolved fluorescence (HTRF) assay, and BACE2 enzymatic activity was determined in an enzyme-linked immunosorbent assay (ELISA)-based assay using an APP-derived peptide that contains the K670N + M671L (Swedish) double mutation of the APP β secretase cleavage site as a substrate. The recombinant human BACE1 (R&D Systems, MN, USA) was incubated (2 h at 25 °C) with the substrate and the inhibitor (9 or 10 concentrations at 1/5 steps from 10 μM). Fluorescence intensity was measured (excitation wavelength: 320 nm, measuring wavelength: 620 nm and 665 nm) using RUBYstar (BMG LABTECH, Ortenberg, Germany). The recombinant human BACE2 ectodomain was incubated (1 h at 37 °C) with the substrate and the inhibitor (10 concentrations at 1/4 steps from 25 μM). The count of chemi-luminescence in each well was measured using ARVOTM MX 1420 Multilabel Counter (PerkinElmer, Shelton, CT, USA). The inhibitory potential of the compounds on the enzymatic activity of BACE1 and BACE2 was determined by performing concentration–response curves.

recombinant human BACE1 [3] = assay: BACE1 biochemical enzymatic assay (HTRF, APP-derived Swedish-mutation peptide substrate); details: selectivity for BACE1 over BACE2 from IC50 values
Protocol: as §1, with “The recombinant human BACE2 ectodomain was incubated (1 h at 37 °C) with the substrate and the inhibitor (10 concentrations at 1/4 steps from 25 μM). The count of chemi-luminescence in each well was measured using ARVOTM MX 1420 Multilabel Counter (PerkinElmer, Shelton, CT, USA).” left out

recombinant human BACE1 [4] = target: T2, recombinant human BACE1 (Homo sapiens, UniProt P56817); assay: as above; details: HTRF, 2 h at 25 °C, APP-derived peptide substrate
T2 construct: purchased R&D Systems
T2 sequence (P56817 46-501): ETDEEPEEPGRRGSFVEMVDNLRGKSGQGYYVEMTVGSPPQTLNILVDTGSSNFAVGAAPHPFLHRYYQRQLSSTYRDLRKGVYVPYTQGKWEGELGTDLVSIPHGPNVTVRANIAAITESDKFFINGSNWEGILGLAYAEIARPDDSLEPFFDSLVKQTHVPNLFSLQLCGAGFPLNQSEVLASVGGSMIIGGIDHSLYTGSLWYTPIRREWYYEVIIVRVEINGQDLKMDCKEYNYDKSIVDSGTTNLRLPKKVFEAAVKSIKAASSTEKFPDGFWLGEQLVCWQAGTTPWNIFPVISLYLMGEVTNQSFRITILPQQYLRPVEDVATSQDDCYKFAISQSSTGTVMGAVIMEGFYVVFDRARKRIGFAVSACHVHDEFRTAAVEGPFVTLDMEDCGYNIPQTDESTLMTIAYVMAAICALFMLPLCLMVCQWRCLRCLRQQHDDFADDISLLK
Protocol: as §1, with “The recombinant human BACE2 ectodomain was incubated (1 h at 37 °C) with the substrate and the inhibitor (10 concentrations at 1/4 steps from 25 μM). The count of chemi-luminescence in each well was measured using ARVOTM MX 1420 Multilabel Counter (PerkinElmer, Shelton, CT, USA).” left out

[5] = tested on: dendritic spines of layer V pyramidal neurons, somatosensory cortex; assay: Longitudinal in vivo two-photon dendritic spine imaging in GFP-M mice; design: species or system mouse; details: inhibitor food pellets for 21 days, compared to vehicle
brain Aβ40 = assay: Brain Aβ levels in mice fed inhibitor pellets (Aβ40 ELISA, soluble brain fraction); assay type: in vivo, mouse; details: C57BL/6 mice, food pellets with inhibitor for one week, level reduced to % of vehicle
Source text: C57BL/6 mice (CLEA Japan Inc., Tokyo, Japan) were fed with food pellets containing 0.02% elenbecestat, 0.0125% Shionogi compound 1, and 0.025% Shionogi compound 2 for one week (performed at AAALAC compatible facilities). Mouse cerebral hemispheres were removed and frozen immediately with liquid nitrogen. The frozen cerebral hemispheres were transferred to a homogenized tube containing ceramic beads in an 8-fold volume of the weight of an extraction buffer (containing 0.4% DEA (diethylamine), 50 mmol/L NaCl, completed with protease inhibitor (Roche, Basel, Switzerland)) and incubated on ice for 20 min. Thereafter, the hemispheres were homogenized using MP BIO FastPrep-24 (MP-Biomedicals, Irvine, CA, USA) with Lysing matrix D 1.4 mm ceramic beads (20 s at 6 m/s). After spinning for 1 min, the supernatant was transferred to a centrifugation tube and centrifuged at 221,000× g, 4 °C, for 50 min. After centrifugation, the supernatant was used for measuring the brain Aβ40. The brain Aβ40 was measured using Human/Rat Amyloid beta 40 ELISA Kit (FUJIFILM Wako Pure Chemical Corporation, Osaka, Japan). The assay procedure was conducted according to instructions.

cognition = details: in vivo; cited from earlier work
[6] = tested on: soluble Seizure protein 6 (sSez6); assay: Soluble Sez6 levels in the mouse brain (Western blot); assay type: in vivo; details: C57BL/6 mice, food pellets with inhibitor for one week, soluble brain fraction; level reduced to % of vehicle
Source text: C57BL/6 mice (CLEA Japan Inc., Tokyo, Japan) were fed with food pellets containing 0.02% elenbecestat, 0.0125% Shionogi compound 1, and 0.025% Shionogi compound 2 for one week (performed at AAALAC compatible facilities). Mouse cerebral hemispheres were removed and frozen immediately with liquid nitrogen. The frozen cerebral hemispheres were transferred to a homogenized tube containing ceramic beads in an 8-fold volume of the weight of an extraction buffer (containing 0.4% DEA (diethylamine), 50 mmol/L NaCl, completed with protease inhibitor (Roche, Basel, Switzerland)) and incubated on ice for 20 min. […] The brain Aβ40 was measured using Human/Rat Amyloid beta 40 ELISA Kit (FUJIFILM Wako Pure Chemical Corporation, Osaka, Japan). […]
The brain samples were heated at 95 °C in 1% SDS sample buffer with 100 mM DTT for 5 min, separated by SDS-PAGE on 4–20% precast polyacrylamide gels (Biorad, Feldkirchen, Germany), and transferred to PVDF membranes (Biorad, Feldkirchen, Germany). […] After final washes with PBST, the membranes were incubated with ECL prime for a few minutes, and signal was detected with LAS-3000 (FUJIFILM Wako Pure Chemical Corporation, Osaka, Japan). Densitometry quantification of Western blot signal was conducted using Multi Gauge V3.1 software (FUJIFILM Wako Pure Chemical Corporation, Osaka, Japan).

| Structure (SMILES) | Dendritic spine plasticity in the cerebral cortex [1] | IC50 [2] [nM] | BACE1/BACE2 (fold) (recombinant human BACE1 [3]) | IC50 (recombinant human BACE1 [4]) [nM] | Dendritic spine density [5] | Brain Aβ level compared to vehicle (brain Aβ40) [%] | Cognitive worsening in the clinic (cognition) | Brain sSez6 level compared to vehicle [6] [%] |
| --- | --- | --- | --- | --- | --- | --- | --- | --- |
| CN1C(=N)N[C@](C)(c2cc(NC(=O)c3ccc(F)cn3)ccc2F)CS1(=O)=O [verubecesat, verubecestat] | significant decrease in dendritic spine plasticity |  |  |  |  |  |  |  |
| C[C@H]1OC[C@]2(c3cc(NC(=O)c4cnc(C(F)F)cn4)ccc3F)N=C(N)SC[C@H]12 [Elenbecestat, elenbecestat] |  | 46 | 12 | 3.9 | do not alter dendritic spine density | 46 | did not show cognitive worsening | 27 |
